Test results taken from US11963533B2 (priority 2017, dated 2024).
Read-outs that look alike come from different tables or passages of the source.

Tests used:
[1] = test system: C. Las (Candidatus Liberibacter asiaticus); format: in vivo; settings: HLB-positive citrus plants, trunk delivery
sweet orange leaves = settings: in vivo
[2] = test system: C. Lso (Ca. L. solanacearum); format: in vivo, Candidatus Liberibacter solanacearum
[3] = test system: C. Lso (Ca. L. solanacearum); format: in vivo, Candidatus Liberibacter solanacearum; remark: listed apart in the source
Ca. L. solanacearum = format: in vivo, Candidatus Liberibacter solanacearum; settings: 30 μM peptide by stem injection; for growth of infected plants compared to mock treatment: Ca. L. solanacearum-infected Nb plants, 3 weeks of treatment, FIG. 3A; for bacterial titer compared to plants treated with mock solution: Ca. L. solanacearum-infected plants, FIGS. 3B and 7

## SAMP
[1]
  bacteria detected in the treated trees: No bacteria were detected
[1]; FIG. 4: 100 nM or 10 μM once, 5 weeks
  reduction of bacterial titer of treated trees: 30-100 folds
[1]; mock treated plants still have yellow patch symptoms
  symptoms of new shoots and leaves from the treated trees: no longer symptomatic
Sweet orange leaves
  cell death in leaves: No cell death
Human protease pepsin
  time to complete digestion by pepsin: ≤ 45 min
[2]; C. Lso-infected tomato, FIG. 6
  disease symptom: largely reduced
[2]; tomato plants pre-treated with SAMP vs mock, exposed to C. Lso positive potato psyllids 5 days, 4 weeks post infection
  plant growth after C. Lso infection: grew better
[3]; C. Lso-infected potato, FIG. 5
  disease symptom: clearly inhibited
  yield of tuber production: increased
[3]; potato plants pre-treated with SAMP 10 μM vs mock, exposed to C. Lso positive potato psyllids 5 days, 3 weeks post infection
  plant growth after C. Lso infection: grew better

B1: CghSAMPa: stable antimicrobial peptide from Eremocitrus glauca x citrus sp., SEQ ID NO: 1, expressed and purified in E. coli (protein)
chain: MCCNRGKNVSIENLHQGFTHIFESTFESTEGVAEYVSHPSHVEYANLFLANLEKVLVIDYKPTTVRV
Ca. L. solanacearum
  growth of infected plants compared to mock treatment: grow much better
  bacterial titer compared to plants treated with mock solution: much lower

B2: CghSAMPb: stable antimicrobial peptide from Eremocitrus glauca x citrus sp., SEQ ID NO: 2, expressed and purified in E. coli (protein)
chain: MCCNRGKNVSIENLHQGFPHLFEFTFESTEGVAEYVSHPAHVEYANLFLANLEKVLVIDYKPTTVRV
Ca. L. solanacearum
  growth of infected plants compared to mock treatment: grow much better
  bacterial titer compared to plants treated with mock solution: much lower
